Test results published in patent US7973064B2, “Method and composition for potentiating an opiate analgesic” (The Board of Trustees of the University of Illinois, priority 2001, dated 2011).
“Also recorded” adds a separate entry of the source. Square brackets hold non-standard residues; d marks the D form. Peptide text beside a SMILES is read from it.

Experiments:
[1] = test system: streptozotocin-induced diabetic rat; settings: cited from earlier work; for increase in tactile allodynia thresholds: systemic administration
[2] = test system: mice rendered tolerant and dependent on morphine; experiment: Morphine tolerance in mice; format: in vivo, mouse; settings: FIGS. 6-8
Excerpt: (§1) FIGS. 6-8 illustrate the ability of an endothelin antagonist to […] opiate analgesic tolerance in mice and rats rendered tolerant and dependent on morphine. The test method used to generate the data set forth in FIGS. 6-8 is disclosed in H. N. Bhargava et al., J. Pharmacol. Exp. Ther., 252(3), pp. 901-907 (1990). The method disclosed therein was modified slightly for mice because the smaller mice could not survive the morphine dose administered to the rats.

Male Sprague-Dawley rats [3] = experiment: Tail flick analgesia in rats; format: in vivo, rat; settings: for effect on tail flick latency (analgesia), drug alone: morphine 8 mg/kg s.c. or BQ123 10 μg i.c.v.
Procedure: (§2) Male Sprague-Dawley rats weighing 225 to 250 g (Sasco King Animal Co., Madison, Wis.) were housed in a room with controlled temperature (23±1° C.), humidity (50±10%), and light (6:00 a.m. to 6:00 p.m.) for at least four days prior to testing. Food and water were available to the rats continuously.
(§3) The rats were divided into four groups (FIG. 1): group 1 received vehicle (saline 5 μl, i.c.v. over 5 minutes) and vehicle (saline 100 μl/kg s.c.); group 2 received vehicle (saline 100 μl/kg, s.c.) and BQ123 (10 μg, i.c.v. in a volume of 5 μl over 5 minutes); group 3 received morphine (8 mg/kg, s.c. in a volume of 100 μl/kg) and vehicle (saline 100 μl/kg, s.c.); and group 4 received morphine (8 mg/kg, s.c. in a volume of 100 μl/kg) and BQ123 (10 μg, i.c.v. in a volume of 5 μl over 5 minutes). Vehicle or BQ123 treatment was performed 30 minutes prior to morphine administration.
(§4) Measurement of analgesic effect: The analgesic response to morphine was determined by the tail flick method. The tail flick latencies to thermal stimulation were determined before and 30, 60, 90, 120, 180, 210, 240, 270, 300, and 360 minutes after the morphine injection. […] A cutoff time of 10 seconds was used to prevent damage to the tail. The basal latency was subtracted from that induced by morphine. […] The differences in analgesic response to different doses of morphine were compared by using student's t test. A value of P<0.05 was considered significant.

mice [4] = experiment: Tail flick analgesia in mice; format: in vivo, mouse; settings: morphine 2, 4, and 8 mg/kg s.c.
Procedure: (§5) Tests also were performed on mice. The mice were housed and fed similar to the rats as described above taking into consideration the size differential between rats and mice. The mice were divided into groups identical to the rats, but administered different amounts of vehicle, opiate analgesic, and endothelin antagonist, as disclosed hereafter.
as §4

Male Sprague-Dawley rats [5] = experiment: Colonic temperature in rats; format: in vivo, rat; settings: for effect on body temperature, drug alone: morphine 8 mg/kg s.c. or BQ123 10 μg i.c.v.
Procedure: as §2, §3
Measurement of colonic temperature: The change in temperature in response to morphine was determined. The colonic temperature of each rat was recorded before and various times after morphine injection for a period of 360 minutes using a tele-thermometer. […] Rats used to measure tail flick latencies also were used to determine the colonic temperature. The differences in temperature response between various groups were compared by using student's t test. A value of P<0.05 was considered significant.

Male Sprague-Dawley rats [6] = experiment: Catalepsy bar test in rats; format: in vivo, rat; settings: for catalepsy (bar test), drug alone: 45 minutes after morphine or vehicle, morphine 8 mg/kg s.c. or BQ123 10 μg i.c.v.
Procedure: as §2, §3
Measurement of catalepsy: Rats were tested for catalepsy by the bar test. An aluminum bar 5 mm in diameter was placed 4 cm above the floor, and the animal's forepaw was gently placed on the bar. The time required for the animal to place at least one paw on the floor was measured with a maximum term of observation of 180 seconds. Behavioral evaluation of catalepsy was performed 45 minutes after the administration of morphine or its vehicle. Statistical tests were performed as described above.

Body weight in rats = format: in vivo, rat; settings: before any drug and seven hours after morphine, BQ123 10 μg i.c.v., morphine 8 mg/kg s.c.
Procedure: as §3
Effect on body weight: Body weight was measured in all groups of rats of FIG. 1. […] Body weight was measured before administering any drug and at the end of the experiment, i.e., seven hours after the administration of morphine.

mice [7] = settings: BQ123 and morphine 2, 4, or 8 mg/kg
Procedure: as §5

[8] = Body weight in mice given BQ123 and morphine; format: in vivo, mouse; settings: BQ123 and morphine 2, 4, or 8 mg/kg
Procedure: Tests also were performed on mice.

[9] = test system: morphine tolerant dependent rats; experiment: Tolerance to analgesic effect in morphine tolerant dependent rats; format: in vivo, rat; settings: 6 morphine pellets in 7-day period, BQ123 10 μg i.c.v. twice a day for 7 days
Procedure: as §1
(§6) The effect of BQ123 (3 μg, i.c.v.) on naloxone-precipitated morphine withdrawal also was determined in mice. […] Tests also were performed to determine tolerance to analgesic effect in morphine tolerant dependent rats (6 morphine pellets in 7-day period).

morphine tolerant mice = experiment: Naloxone-precipitated morphine withdrawal in mice; format: in vivo, mouse; settings: 1 morphine 75 mg pellet for 3 days, naloxone 1 mg/kg i.p., BQ123 3 μg i.c.v.
Procedure: as §6

rat sciatic nerve = settings: ET-1 200 to 800 μM applied to sciatic nerve, pretreatment; cited from earlier work
[10] = test system: Cr1:CD-1(ICR)BR mice and CXBK mice; settings: ET-1 intraperitoneally, through μ1 sensitive pathway; cited from earlier work
[11] = BQ123 10 μg i.c.v. 30 minutes prior to morphine 8 mg/kg s.c.

CCCCN(CCCC)C(=O)CN1C[C@H](c2ccc3c(c2)OCO3)[C@@H](C(=O)O)[C@@H]1c1ccc(OC)cc1 [ABT-627]
antinociceptive effect following chronic administration ([1]; in drinking water for 7 days): maintained
increase in tactile allodynia thresholds [1]: 40 to 50%

Cc1noc(NS(=O)(=O)c2cccc3c(N(C)C)cccc23)c1C [BMS182874]
morphine tolerance after treatment with endothelin antagonist [2]: reduced morphine tolerance

CC(C)C[C@@H]1NC(=O)[C@@H](C(C)C)NC(=O)[C@@H]2CCCN2C(=O)[C@@H](CC(=O)O)NC(=O)[C@@H](Cc2c[nH]c3ccccc23)NC1=O [BQ123, cyclo(-D-Trp-D-Asp-Pro-D-Val-Leu-)] (cyclo(L[dW][dD]P[dV]))
duration of morphine analgesia in BQ123 pretreated rats (Male Sprague-Dawley rats [3]; [11]): more than six
effect of BQ123 on analgesic effect of morphine (Male Sprague-Dawley rats [3]; [11]): significantly potentiated
effect on tail flick latency (analgesia), drug alone (Male Sprague-Dawley rats [3]): did not produce any significant effect on tail flick latency
duration of morphine analgesia with BQ123 (mice [4]; BQ123 3 μg i.c.v.): more than 4 hours
effect of BQ123 on morphine analgesia (mice [4]; BQ123 3 μg i.c.v.): significantly potentiated morphine analgesia; also recorded: analgesia was potentiated
duration of morphine hyperthermia in BQ123 pretreated rats (Male Sprague-Dawley rats [5]; [11]): more than six
effect of BQ123 on hyperthermic effect of morphine (Male Sprague-Dawley rats [5]; [11]): significantly potentiated
effect on body temperature, drug alone (Male Sprague-Dawley rats [5]): did not produce any significant effect on body temperature
catalepsy (bar test), drug alone (Male Sprague-Dawley rats [6]): did not produce any cataleptic effect
effect of BQ123 pretreatment on morphine-induced catalepsy (Male Sprague-Dawley rats [6]; [11]): did not produce any change in morphine-induced catalepsy
change in body weight (Body weight in rats): no change in body weight
effect of BQ123 on morphine-induced hypothermia (mice [7]): not affected
effect on body weight [8]: not affected
morphine tolerance after treatment with endothelin antagonist [2]: reduced morphine tolerance
development of tolerance to morphine analgesic effect [9]: did not become tolerant to morphine
effect on naloxone-precipitated morphine withdrawal symptoms (morphine tolerant mice): did not affect hypothermia, loss of body weight, jumping behavior, falls, diarrhea, fecal boli, urination, ptosis, writhing, and rearing behavior during withdrawal; also recorded: no effect on temperature, body weight, urination, diarrhea, jumping behavior, number of falls, ptosis, and grooming
effect on ET-1 induced hindpaw flinching (rat sciatic nerve): blocked

CN1CC[C@]23c4c5ccc(O)c4O[C@H]2[C@@H](O)C=C[C@H]3[C@H]1C5 [morphine]
time after administration until which tail flick latencies were significantly increased, morphine alone (Male Sprague-Dawley rats [3]; morphine 8 mg/kg s.c.): three
effect on tail flick latency (analgesia), drug alone (Male Sprague-Dawley rats [3]): produced significant analgesia
tail flick latency (Male Sprague-Dawley rats [3]; morphine 8 mg/kg s.c., control about 2 seconds): more than 10 seconds
duration of increase in tail flick latency, morphine alone (mice [4]): 1.5 h
effect on mouse tail flick latency, morphine alone (mice [4]): significant increase in mouse tail flick latency
duration of hyperthermia, morphine alone (Male Sprague-Dawley rats [5]; morphine 8 mg/kg s.c.): about four
effect on body temperature, drug alone (Male Sprague-Dawley rats [5]): produced significant hyperthermia
catalepsy (bar test), drug alone (Male Sprague-Dawley rats [6]): significantly increased catalepsy
change in body weight (Body weight in rats): neither morphine nor BQ123 produced any acute effect on body weight
increase in tactile allodynia thresholds [1]: 90%
effect on ET-1 induced hindpaw flinching (rat sciatic nerve): completely blocked
effect on ET-1 induced nociception [10]: could be blocked by morphine
